The values that follow come from US9302999B2, “Substituted triazoles as herbicides” (E. I. DU PONT DE NEMOURS AND COMPANY, priority 2012, dated 2016).

Where two headings read alike, the source gives them in different places.

What all share (type): in vivo
The subject of assay [1] is barnyardgrass (Echinochloa crus-galli). In words: Test C flooded paddy test: barnyardgrass. As to conditions: scale 0 to 100 (0 no effect, 100 complete control); for pest or weed control at 62 g/ha / pest or weed control at 125 g/ha / pest or weed control at 250 g/ha / pest or weed control at 31 g/ha: Echinochloa crus-galli, read-out: Plant response rating, Barnyardgrass. The procedure, abridged:
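Plants at 2-leaf stage in pots flooded 3 cm above soil; compounds applied directly into the paddy water, depth maintained. Visual rating against controls after 13–15 days in greenhouse, scale 0 (no effect) to 100 (complete control).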

Assay [2] deals with foxtail, green (green foxtail, Setaria viridis). Nature of the assay: Test C pre-/postemergence: foxtail, green. From the text: Seeds of plant species selected from blackgrass (Alopecurus myosuroides), bromegrass, downy (downy bromegrass, Bromus tectorum), foxtail, green (green foxtail, Setaria viridis), ryegrass, Italian (Italian ryegrass, Lolium multiflorum), winter wheat (Triticum aestivum), wild oat (Avena fatua), galium (catchweed bedstraw, Galium aparine), bermudagrass (Cynodon dactylon), surinam grass (Brachiaria decumbens), cocklebur (common cocklebur, Xanthium strumarium), corn (Zea mays), large crabgrass (Digitaria sanguinalis), woolly cupgrass (Eriochloa villosa), foxtail, giant (giant foxtail, Setaria faberii), goosegrass (Eleusine indica), johnsongrass (Sorghum halepense), kochia (Kochia scoparia), lambsquarters (Chenopodium album), morningglory (Ipomoea coccinea), nightshade (eastern black nightshade, Solanum ptycanthum), nutsedge, yellow (yellow nutsedge, Cyperus esculentus), pigweed (Amaranthus retroflexus), ragweed (common ragweed, Ambrosia elation), soybean (Glycine max), common (oilseed) sunflower (Helianthus annuus), Russian thistle (Salsola kali) and velvetleaf (Abutilon theophrasti) were planted into a blend of loam soil and sand and treated preemergence with test chemicals formulated in a non-phytotoxic solvent mixture which included a surfactant.
At the same time, plants selected from these crop and weed species and also barley (winter barley, Hordeum vulgare), canarygrass (Phalaris minor), chickweed (common chickweed, Stellaria media) windgrass (Apera spica-venti) and deadnettle (henbit deadnettle, Lamium amplexicaule) were planted in pots containing Redi-Earth® planting medium (Scotts Company, 14111 Scottslawn Road, Marysville, Ohio 43041) comprising spaghnum peat moss, vermiculite, wetting agent and starter nutrients and treated with postemergence applications of test chemicals formulated in the same manner. Plants ranged in height from 2 to 18 cm (1- to 4-leaf stage) for postemergence treatments.
Treated plants and controls were maintained in a greenhouse for 13 to 15 days, after which time all species were compared to controls and visually evaluated. Plant response ratings, summarized in Table C, are based on a scale of 0 to 100 where 0 is no effect and 100 is complete control. A dash (-) response means no test result.

Assay [3] deals with bluegrass (annual bluegrass, Poa annua). Nature of the assay: Test D pre-/postemergence: bluegrass. The note with it: Postemergence. The source says:
(§1) Seeds of plant species selected from bluegrass (annual bluegrass, Poa annua), blackgrass (Alopecurus myosuroides), canarygrass (Phalaris minor), chickweed (common chickweed, Stellaria media), galium (catchweed bedstraw, Galium aparine), bromegrass, downy (downy bromegrass, Bromus tectorum), field poppy (Papaver rhoeas), field violet (Viola arvensis), foxtail, green (green foxtail, Setaria viridis), deadnettle (henbit deadnettle, Lamium amplexicaule), ryegrass, Italian (Italian ryegrass, Lolium multiflorum), kochia (Kochia scoparia), lambsquarters (Chenopodium album), oilseed rape (Brassica napus), pigweed (Amaranthus retroflexus), Russian thistle (Salsola iberica), chamomile (scentless chamomile, Matricaria inodora), speedwell (bird's-eye speedwell, Veronica persica), barley, spring (spring barley, Hordeum vulgare), wheat, spring (spring wheat, Triticum aestivum), buckwheat, wild (wild buckwheat, Polygonum convolvulus), mustard, wild (wild mustard, Sinapis arvensis), oat, wild (wild oat, Avena fatua), radish, wild (wild radish, Raphanus raphanistrum), windgrass (Apera spica-venti), barley, winter (winter barley, Hordeum vulgare), and wheat, winter (winter wheat, Triticum aestivum) were planted into a silt loam soil and treated preemergence with test chemicals formulated in a non-phytotoxic solvent mixture which included a surfactant. At the same time, these same crop and weed species were planted in pots containing the planting medium comprising spaghnum peat moss, vermiculite, wetting agent and starter nutrients and treated with postemergence applications of the test chemicals formulated in the same manner. Plants ranged in height from 2 to 18 cm (1- to 4-leaf stage).
(§2) Treated plants and controls were maintained in a controlled growth environment for 14 to 21 days after which time all species were compared to controls and visually evaluated. Plant response ratings, summarized in Table D, are based on a scale of 0 to 100 where 0 is no effect and 100 is complete control. A dash (-) response means no test result.

Assay [4] relates to bromegrass, downy (downy bromegrass, Bromus tectorum). In words: Test D pre-/postemergence: bromegrass, downy. The note with it: Postemergence.
Excerpt: as §1, §2

Assay [5] deals with field poppy (Papaver rhoeas). Nature of the assay: Test D pre-/postemergence: field poppy. As to conditions: Postemergence.
Excerpt: as §1, §2

For assay [6], the system named is oilseed rape (Brassica napus). Nature of the assay: Test D pre-/postemergence: oilseed rape. As to conditions: Postemergence.
Excerpt: as §1, §2

Assay [7] deals with windgrass (Apera spica-venti). In words: Test D pre-/postemergence: windgrass. As to conditions: Postemergence; for Plant response rating, Windgrass: scale 0 to 100.
Excerpt: as §1, §2

For assay [8], the system named is barley, winter (winter barley, Hordeum vulgare). Nature of the assay: Test D pre-/postemergence: barley, winter. As to conditions: Postemergence.
Excerpt: as §1, §2

[9] abbreviates: Flood (flooded paddy test), 62 g ai/ha, visual rating after 13 to 15 days.
Setting [10] is: Flood (flooded paddy test), 125 g ai/ha, visual rating after 13 to 15 days.
[11] abbreviates: Flood (flooded paddy test), 250 g ai/ha, visual rating after 13 to 15 days.
[12] abbreviates: Postemergence, 31 g ai/ha, scale 0 to 100 (0 no effect, 100 complete control).
[13] abbreviates: Postemergence, 62 g ai/ha, scale 0 to 100 (0 no effect, 100 complete control).
Setting [14] is: Postemergence, 125 g ai/ha, scale 0 to 100, 0 no effect, 100 complete control.
[15] abbreviates: Postemergence, 250 g ai/ha, scale 0 to 100.
Setting [16] is: Preemergence, 31 g ai/ha, scale of 0 to 100, 0 is no effect, 100 is complete control.
Setting [17] is: Preemergence, 62 g ai/ha, scale of 0 to 100, 0 is no effect, 100 is complete control.
Setting [18] is: Preemergence, 125 g ai/ha, scale 0 to 100, 0 no effect, 100 complete control.
[19] abbreviates: Preemergence, 250 g ai/ha, scale 0 to 100, 0 no effect, 100 complete control.
Where [20] appears, read: 31 g ai/ha, scale 0 to 100 (0 no effect, 100 complete control).
Setting [21] is: 62 g ai/ha, scale 0 to 100 (0 no effect, 100 complete control).
[22] abbreviates: 125 g ai/ha, scale 0 to 100, 0 no effect, 100 complete control.
Setting [23] is: 250 g ai/ha, scale 0 to 100 (0 no effect, 100 complete control).

For `COc1nn(-c2ccc(C(F)(F)F)cc2)nc1Cn1ccc(C(F)(F)F)n1` [Compound 17, 4-methoxy-2-[4-(trifluoromethyl)phenyl]-5-[[3-(trifluoromethyl)-1H-pyrazol-1-yl]methyl]-2H-1,2,3-triazole], the pest or weed control at 62 g/ha in assay [1] (setting [9]) came to 20%. In addition, the pest or weed control at 125 g/ha in assay [1] (setting [10]) was determined as 40%. In assay [1] (setting [11]), the pest or weed control at 250 g/ha came out at 45%. In addition, the pest or weed control at 31 g/ha in assay [1] (Flood, 31 g ai/ha) is 0%.

Take `Cc1nn(-c2ccc(C(F)(F)F)cc2)nc1Cc1ccnc(C(F)(F)F)c1` [Compound 47, 4-[[5-methyl-2-[4-(trifluoromethyl)phenyl]-2H-1,2,3-triazol-4-yl]methyl]-2-(trifluoromethyl)pyridine]: the “Plant response rating, Foxtail, Green” value in assay [2] (setting [12]) is given as 20; in assay [2] (setting [13]), 98; in assay [2] (setting [14]) it was 100; in assay [2] (setting [15]), 100; in assay [2] (setting [16]), 100; in assay [2] (setting [17]) it was 100. The “Plant response rating, Foxtail, Green” value in assay [2] (setting [18]) and in assay [2] (setting [19]) was 100 throughout. The pest or weed control at 62 g/ha in assay [1] (setting [9]) amounted to 50%. Besides, in assay [1] (setting [10]), the pest or weed control at 125 g/ha is 80%. In assay [1] (setting [11]), the pest or weed control at 250 g/ha was found to be 80%. Moreover, the pest or weed control at 31 g/ha in assay [1] (Flood, 31 g ai/ha) stood at 40%.

`Cc1nn(-c2ccc(C(F)(F)F)cc2)nc1Cc1cccc(C(F)(F)F)c1` [Compound 124]: the “Plant response rating, Foxtail, Green” value was 65 in assay [2] (Postemergence, 16 g ai/ha, scale 0 to 100, 0 no effect, 100 complete control); 70 in assay [2] (setting [12]); 90 in assay [2] (setting [13]); 95 in assay [2] (setting [14]). For the same molecule, the “Plant response rating, Barnyardgrass” value is on record as 50 in assay [1] (setting [10]); 50 in assay [1] (setting [11]); 20 in assay [1] (Flood, 31 g ai/ha); 40 in assay [1] (Flood, 62 g ai/ha).

`CCc1nn(-c2ccc(C(F)(F)F)cc2)nc1Oc1cccc(OC(F)(F)F)c1` [Compound 125, 4-ethyl-5-[3-(trifluoromethoxy)phenoxy]-2-[4-(trifluoromethyl)phenyl]-2H-1,2,3-triazole]: the pest or weed control at 125 g/ha in assay [1] (setting [10]) was 0%. Further, the pest or weed control at 250 g/ha in assay [1] (setting [11]) was 10%. The pest or weed control at 31 g/ha in assay [1] (Flood, 31 g ai/ha) is 0%. Moreover, the pest or weed control at 62 g/ha in assay [1] (Flood, 62 g ai/ha) came out at 0%.

Regarding `Cc1nn(-c2ccnc(C(F)(F)F)c2)nc1Cc1ccnc(C(F)(F)F)c1` [Compound 137], the “Plant response rating, Foxtail, Green” value in assay [2] (setting [12]) was found to be 80; in assay [2] (setting [13]), 85; in assay [2] (setting [14]) it was 95; in assay [2] (setting [15]), 95. The “Plant response rating: Bluegrass” value in assay [3] (setting [20]) is listed as 20; in assay [3] (setting [21]), 40; in assay [3] (setting [22]), 80; in assay [3] (setting [23]), 90. For the same molecule, the “Plant response rating, Bluegrass” value in assay [3] (16 g ai/ha, scale 0 to 100) was 5. Also, the “Plant response rating: Bromegrass, Downy” value turned out to be 15 in assay [4] (setting [20]), 20 in assay [4] (setting [21]), 30 in assay [4] (setting [22]) and 40 in assay [4] (setting [23]). Also, in assay [4] (16 g ai/ha, scale 0 to 100), the “Plant response rating, Bromegrass, Downy” value is on record as 5. Also, the “Plant response rating: Field Poppy” value is given as 40 in assay [5] (setting [20]), 100 in assay [5] (setting [21]), 100 in assay [5] (setting [22]) and 100 in assay [5] (setting [23]). The “Plant response rating, Field Poppy” value in assay [5] (16 g ai/ha, scale 0 to 100) was determined as 30. The “Plant response rating: Oilseed Rape” value in assay [6] (setting [20]) was determined as 90; in assay [6] (setting [21]) it was 98; in assay [6] (setting [22]), 100; in assay [6] (setting [23]), 100. Also, the “Plant response rating, Oilseed Rape” value in assay [6] (16 g ai/ha, scale 0 to 100) is given as 70. For the same molecule, the “Plant response rating: Windgrass” value in assay [7] (setting [21]) amounted to 40; in assay [7] (setting [22]), 50; in assay [7] (setting [23]), 80. The “Plant response rating, Windgrass” value was 10 in assay [7] (16 g ai/ha) and 20 in assay [7] (31 g ai/ha). For the same molecule, the “Plant response rating: Barley, Winter” value in assay [8] (setting [20]) came out at 5; in assay [8] (setting [21]), 5; in assay [8] (setting [22]) it was 1; in assay [8] (setting [23]), 10. Also, the “Plant response rating, Barley, Winter” value in assay [8] (16 g ai/ha, scale 0 to 100) was determined as 0.

Take `Fc1ccc(-n2nc(Cc3ccnc(C(F)(F)F)c3)c(OCC(F)(F)F)n2)cc1` [Compound 142]: the “Plant response rating, Foxtail, Green” value in assay [2] (setting [12]) was found to be 100; in assay [2] (setting [13]) it was 100; in assay [2] (setting [14]) it was 100; in assay [2] (setting [15]), 100; in assay [2] (setting [16]), 90; in assay [2] (setting [17]), 90. Also, the “Plant response rating, Foxtail, Green” value in assay [2] (setting [18]) and in assay [2] (setting [19]) was 90 each time.
